Experimental findings from PubChem BioAssay (NCI) are described below.

Test systems include OVCAR-8 ovarian; SK-MEL-5 melanoma; TK-10 renal; KM12 colon; SW-620 colon; 786-0 renal; OVCAR-5 ovarian; RXF 393 renal; UACC-257 melanoma; SF-295 CNS; NCI-H23 lung; M14 melanoma; SNB-19 CNS; HCC-2998 colon; HS 578T breast; IGROV1 ovarian; UACC-62 melanoma.
Common to all, as to assay: inhibition of tumour cell growth, NCI panel, 48 h

Structures are written as SMILES.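 96-well plates; 48 h exposure; 5 concentrations. Endpoints by linear interpolation between flanking doses. Not reached: highest tested concentration assigned. TGI: concentration producing complete growth inhibition.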 Where only a bound is given, the exact number is not on record here.

`COC(=O)C1=C(C)NC(C)=C(C(=O)OC)C1c1ccc(N=O)cc1`: the TGI with OVCAR-8 ovarian was found to be 21.7 µM; in the assay with SK-MEL-5 melanoma it was 30.9 µM; in the assay on TK-10 renal, 29.2 µM; with KM12 colon it was 33.4 µM; in the assay on SW-620 colon, 12.9 µM; with 786-0 renal, 27.7 µM. In addition, the TGI in the assay on OVCAR-5 ovarian was 32.9 µM; in the assay with RXF 393 renal it was 23.5 µM; with UACC-257 melanoma, 23.2 µM; with SF-295 CNS it was over 61.3 µM; in the assay on NCI-H23 lung it was 38.9 µM; in the assay with M14 melanoma it was 23.3 µM. Further, the TGI with SNB-19 CNS is over 81.2 µM; with HCC-2998 colon, 33.7 µM; in the assay on HS 578T breast, 40.8 µM; in the assay with IGROV1 ovarian, 30.1 µM; in the assay on UACC-62 melanoma, 30 µM.
With `CCN(CC)c1ccc(/C=C/C(=O)c2cc(C(C)(C)C)c(O)c(C(C)(C)C)c2)cc1`, the TGI in the assay on OVCAR-8 ovarian is over 100 µM; with SK-MEL-5 melanoma, 70.9 µM; with TK-10 renal it was 97.6 µM; in the assay with KM12 colon, over 30.3 µM; with SW-620 colon it was over 100 µM; in the assay with 786-0 renal it was over 81.2 µM. In addition, the TGI in the assay with OVCAR-5 ovarian was over 44.8 µM; in the assay on RXF 393 renal, 39.1 µM; in the assay on UACC-257 melanoma it was over 100 µM; in the assay with SF-295 CNS, 7.98 µM; in the assay with NCI-H23 lung it was over 100 µM; with M14 melanoma it was over 93.9 µM. In addition, the TGI in the assay with SNB-19 CNS is over 100 µM; in the assay with HCC-2998 colon, 37 µM; with HS 578T breast, over 39.9 µM; with IGROV1 ovarian it was over 100 µM; in the assay on UACC-62 melanoma it was over 100 µM.
In the case of `O=c1[nH]nc(-c2ccccc2)n1/N=C/c1ccccc1Cl`, the TGI is over 100 µM with OVCAR-8 ovarian; 36.1 µM in the assay on SK-MEL-5 melanoma; over 100 µM in the assay with TK-10 renal; 32.6 µM in the assay on KM12 colon; over 100 µM with SW-620 colon; over 100 µM with 786-0 renal. For the same compound, the TGI with OVCAR-5 ovarian was over 100 µM; with RXF 393 renal, 67.4 µM; with UACC-257 melanoma it was over 100 µM; in the assay on SF-295 CNS, over 100 µM; in the assay with NCI-H23 lung, 87.7 µM; in the assay on M14 melanoma it was over 100 µM. Moreover, the TGI was over 100 µM in the assay with SNB-19 CNS; over 100 µM with HCC-2998 colon; over 100 µM in the assay with HS 578T breast; over 100 µM in the assay on IGROV1 ovarian; 46.5 µM in the assay with UACC-62 melanoma.
For the compound `CC(=O)OC[C@@]12Cc3ccc(C)c(O)c3[C@]1(C)[C@@H](OC(C)=O)[C@]1(O)[C@H]([C@@H](OC(=O)c3ccccc3)[C@@H](C)[C@H]1OC(C)=O)[C@H]2OC(C)=O`, the TGI with OVCAR-8 ovarian, with SK-MEL-5 melanoma, in the assay on TK-10 renal, in the assay with KM12 colon, with SW-620 colon and with 786-0 renal was over 50 µM in each case. For the same compound, the TGI in the assay with OVCAR-5 ovarian, in the assay on RXF 393 renal, in the assay with UACC-257 melanoma, in the assay on SF-295 CNS, in the assay on NCI-H23 lung and with M14 melanoma was over 50 µM throughout. Besides, the TGI in the assay with SNB-19 CNS, with HCC-2998 colon, in the assay on HS 578T breast, in the assay with IGROV1 ovarian and in the assay with UACC-62 melanoma was over 50 µM in each case.
Take `CCN(CC)C1C(=O)NC1C#Cc1ccccc1` (stereo unspecified): the TGI in the assay with OVCAR-8 ovarian, in the assay with SK-MEL-5 melanoma, with TK-10 renal, in the assay on KM12 colon, with SW-620 colon and in the assay on 786-0 renal was over 100 µM each time. The TGI in the assay on OVCAR-5 ovarian, with RXF 393 renal, in the assay on UACC-257 melanoma, in the assay with SF-295 CNS, in the assay with NCI-H23 lung and with M14 melanoma was over 100 µM in each case. The TGI with SNB-19 CNS, with HCC-2998 colon, in the assay on HS 578T breast, in the assay with IGROV1 ovarian and with UACC-62 melanoma was over 100 µM throughout.
For the compound `CCCCCCCCCCCCCCCCCCNc1nc(=O)n(C2CC(O)C(COP(=O)(O)OCC3OC(n4ccc(N)nc4=O)C(O)C3O)O2)cc1F` (stereo unspecified), the TGI in the assay with OVCAR-8 ovarian is 23 µM; in the assay with SK-MEL-5 melanoma, over 100 µM; with TK-10 renal it was over 100 µM; in the assay on KM12 colon, over 100 µM; with SW-620 colon it was over 100 µM; in the assay with 786-0 renal, over 100 µM. Further, the TGI in the assay on OVCAR-5 ovarian, with RXF 393 renal, with UACC-257 melanoma, in the assay on SF-295 CNS, in the assay with NCI-H23 lung and with M14 melanoma was over 100 µM in each case. The TGI in the assay with SNB-19 CNS, with HCC-2998 colon, in the assay on HS 578T breast, in the assay with IGROV1 ovarian and with UACC-62 melanoma was over 100 µM in each case.
With `O=C1NC(N2CCCCC2)=N/C1=C\c1ccc(Cl)cc1`, the TGI is 64.8 µM in the assay on OVCAR-8 ovarian; over 100 µM in the assay with SK-MEL-5 melanoma; over 100 µM in the assay on TK-10 renal; over 100 µM in the assay on KM12 colon; over 100 µM in the assay with SW-620 colon; 79.9 µM in the assay on 786-0 renal. Also, the TGI in the assay on OVCAR-5 ovarian, in the assay with RXF 393 renal, with UACC-257 melanoma, with SF-295 CNS, with NCI-H23 lung and in the assay on M14 melanoma was over 100 µM throughout. For the same compound, the TGI in the assay with SNB-19 CNS was over 100 µM; in the assay with HCC-2998 colon, 60.5 µM; in the assay on HS 578T breast, over 100 µM; with IGROV1 ovarian, over 100 µM; in the assay on UACC-62 melanoma, over 100 µM.
As for `Cc1ccnc2[nH]c(-c3ccc(F)cc3)cc(=O)c12`, the TGI in the assay with OVCAR-8 ovarian, in the assay with SK-MEL-5 melanoma, in the assay with TK-10 renal, with KM12 colon, in the assay with SW-620 colon and in the assay with 786-0 renal was over 100 µM in each case. Besides, the TGI in the assay on OVCAR-5 ovarian is over 100 µM; in the assay on RXF 393 renal, over 100 µM; in the assay with UACC-257 melanoma it was over 100 µM; with SF-295 CNS it was over 100 µM; with NCI-H23 lung it was over 100 µM; with M14 melanoma it was over 46.4 µM. Besides, the TGI with SNB-19 CNS, in the assay on HCC-2998 colon, in the assay on HS 578T breast, with IGROV1 ovarian and in the assay on UACC-62 melanoma was over 100 µM in each case.
